Measured values: article PMC9120017, “Inhibition mechanism of the chloride channel TMEM16A by the pore blocker 1PBC” (Nature Communications, 2022)
Where two headings read alike, the source gives them in different places.

Target: T1, mouse TMEM16A mutant V543A (Mus musculus, UniProt Q8BHY3, V543A)
T1 construct: expressed in transfected cells; host or cells: HEK293T
T1 sequence (Q8BHY3 1-960 V543A): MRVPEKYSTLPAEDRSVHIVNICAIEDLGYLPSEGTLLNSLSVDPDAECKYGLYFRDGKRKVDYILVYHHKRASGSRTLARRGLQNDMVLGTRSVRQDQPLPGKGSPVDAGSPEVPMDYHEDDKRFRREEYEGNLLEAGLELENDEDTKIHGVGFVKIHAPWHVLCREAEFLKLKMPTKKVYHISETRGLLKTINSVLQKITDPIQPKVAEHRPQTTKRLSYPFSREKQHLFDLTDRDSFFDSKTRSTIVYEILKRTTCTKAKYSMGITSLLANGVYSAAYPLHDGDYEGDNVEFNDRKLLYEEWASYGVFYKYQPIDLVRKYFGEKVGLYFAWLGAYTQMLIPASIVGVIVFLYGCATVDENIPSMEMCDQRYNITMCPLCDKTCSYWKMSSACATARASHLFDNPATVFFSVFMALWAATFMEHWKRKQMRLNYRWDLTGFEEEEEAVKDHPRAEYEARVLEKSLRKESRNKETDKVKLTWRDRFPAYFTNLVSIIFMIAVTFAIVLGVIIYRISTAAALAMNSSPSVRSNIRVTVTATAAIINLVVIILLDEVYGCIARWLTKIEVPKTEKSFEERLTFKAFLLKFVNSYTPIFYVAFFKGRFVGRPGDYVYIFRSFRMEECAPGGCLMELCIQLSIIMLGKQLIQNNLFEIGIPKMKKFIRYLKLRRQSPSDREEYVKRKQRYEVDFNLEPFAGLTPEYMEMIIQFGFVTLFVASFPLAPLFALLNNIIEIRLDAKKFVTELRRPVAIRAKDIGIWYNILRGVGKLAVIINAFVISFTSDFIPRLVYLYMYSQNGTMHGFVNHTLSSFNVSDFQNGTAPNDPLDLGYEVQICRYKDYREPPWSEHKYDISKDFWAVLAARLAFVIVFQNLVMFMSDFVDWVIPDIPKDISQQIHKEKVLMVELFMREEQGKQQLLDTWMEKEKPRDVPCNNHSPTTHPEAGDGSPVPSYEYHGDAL
Assay: Inside-out patch recording of 1PBC block, mutant V543A
Format: cell-based
Details: for remaining activity at 30 µM: 1PBC 30; for remaining activity at 30 µM / remaining activity at 100 µM: read-out: fraction of unblocked current; for remaining activity at 100 µM: 1PBC 100
Description: HEK293T cells (ATCC CRL-1573) were maintained in Dulbecco’s modified Eagle’s medium (DMEM; Sigma-Aldrich) supplemented with 10 U ml^−1 penicillin, 0.1 mg ml^−1 streptomycin (Sigma-Aldrich), 2 mM L-glutamine (Sigma-Aldrich), and 10% FBS (Sigma-Aldrich) in a humidified atmosphere containing 5% CO2 at 37 °C. HEK293S GnTI^− cells (ATCC CRL-3022) were maintained in HyClone HyCell TransFx-H medium (GE Healthcare) supplemented with 10 U ml^−1 penicillin, 0.1 mg ml^−1 streptomycin, 4 mM L-glutamine, 0.15% poloxamer 188 (Sigma-Aldrich), and 1% FBS in an atmosphere containing 5% CO2 at 185 rpm at 37 °C. The ac splice variant of mouse TMEM16A (UniProt ID: Q8BHY3), mouse TMEM16B (UniProt ID: Q8CFW1), or mouse TMEM16F (UniProt ID: Q6P9J9) bearing a 3C cleavage site, a Venus YFP, a Myc tag, and a Streptavidin-binding peptide (SBP) downstream of the open reading frame in a modified pcDNA3.1 vector (Invitrogen) were used as described previously[21],[31]. Mutations were introduced using a modified QuikChange method[58] and were verified by sequencing.
HEK293T cells were transfected with 3–4 μg DNA per 6 cm Petri dish using the calcium phosphate co-precipitation method and were used within 24–96 h after transfection. Recordings were performed on inside-out patches excised from HEK293T cells expressing the construct of interest. Patch pipettes were pulled from borosilicate glass capillaries (O.D. 1.5 mm, I.D. 0.86 mm, Sutter Instrument) and were fire-polished with a microforge (Narishige) before use. Pipette resistance was typically 3–8 MΩ when filled with the recording solutions detailed below. Seal resistance was typically 4 GΩ or higher. Voltage-clamp recordings were made using Axopatch 200B, Digidata 1550, and Clampex 10.7 (Molecular Devices). Analog signals were filtered with the in-built 4-pole Bessel filter at 10 kHz and were digitized at 20 kHz. Solution exchange was achieved using a gravity-fed system through a theta glass pipette mounted on an ultra-fast piezo-driven stepper (Siskiyou). […] All recordings were performed at 20 °C.
A symmetrical ionic condition was used throughout. Stock solution with Ca^2+-EGTA contained 150 mM NaCl, 5.99 mM Ca(OH)2, 5 mM EGTA, and 10 mM HEPES at pH 7.40. Stock solution with EGTA contained 150 mM NaCl, 5 mM EGTA, and 10 mM HEPES at pH 7.40. Free Ca^2+ concentrations were adjusted by mixing the stock solutions at the required ratios calculated using the WEBMAXC program (http://web.stanford.edu/~cpatton/webmaxcS.htm). Patch pipettes were filled with the stock solution with Ca^2+-EGTA, which has a free Ca^2+ concentration of 1 mM. 1PBC (ChemBridge) stock was reconstituted in anhydrous DMSO (Sigma-Aldrich) at 100 mM and stored at −20 °C. Working solutions with 1PBC were prepared by serial dilution. Unless otherwise stated, experiments were performed at a saturating Ca^2+ concentration as shown in Supplementary Table 1 and the primary data were corrected for current rundown as described previously[21],[25].
Concentration-response relations, obtained from the ratio of the I-V plots before and after the application of the blocker, were fitted to the Hill equation,1 I/Imax=1/1+IC50/[blocker]^h where I/Imax is the normalized current responses, IC50 defines the concentration at which inhibition is at its half-maximum, and h is the Hill coefficient.

N#Cc1c(C(F)(F)F)cc(O)n2c1nc1ccccc12 [1PBC] was tested. Which remaining activity at 30 µM (-60 mV) did it give?
Its remaining activity at 30 µM is 39.5%.

What about the remaining activity at 30 µM (-80 mV) of the same compound?
Its remaining activity at 30 µM is 43.8%.

What about the remaining activity at 30 µM (-100 mV) of the same compound?
The remaining activity at 30 µM was 47.1%.

And the remaining activity at 30 µM (-120 mV)?
Its remaining activity at 30 µM is 51.5%.

And the remaining activity at 30 µM (-140 mV)?
The remaining activity at 30 µM was 54.7%.

What about the remaining activity at 100 µM (0 mV) of the same compound?
The remaining activity at 100 µM was 9.46%.

And the remaining activity at 100 µM (20 mV)?
Its remaining activity at 100 µM is 7.3%.

What about the remaining activity at 100 µM (40 mV) of the same compound?
The remaining activity at 100 µM was 6.78%.

What about the remaining activity at 100 µM (60 mV) of the same compound?
Its remaining activity at 100 µM is 6.85%.

And the remaining activity at 100 µM (80 mV)?
The remaining activity at 100 µM was 6.35%.

And the remaining activity at 100 µM (100 mV)?
The remaining activity at 100 µM was 6.17%.

And the remaining activity at 100 µM (120 mV)?
The remaining activity at 100 µM was 6.44%.

And the remaining activity at 100 µM (140 mV)?
The remaining activity at 100 µM was 6.48%.

And the remaining activity at 100 µM (-20 mV)?
Its remaining activity at 100 µM is 11.6%.

What about the remaining activity at 100 µM (-40 mV) of the same compound?
The remaining activity at 100 µM was 13.7%.

What about the remaining activity at 100 µM (-60 mV) of the same compound?
The remaining activity at 100 µM was 16%.

What about the remaining activity at 100 µM (-80 mV) of the same compound?
Its remaining activity at 100 µM is 18.7%.

What about the remaining activity at 100 µM (-100 mV) of the same compound?
Its remaining activity at 100 µM is 21.8%.

What about the remaining activity at 100 µM (-120 mV) of the same compound?
The remaining activity at 100 µM was 25%.

And the remaining activity at 100 µM (-140 mV)?
Its remaining activity at 100 µM is 27.8%.

And the IC50 (20 mV, 15 µM Ca2+)?
Its IC50 is 9.55 µM.

And the IC50 (40 mV, 15 µM Ca2+)?
The IC50 was 8.65 µM.

What about the IC50 (60 mV, 15 µM Ca2+) of the same compound?
Its IC50 is 8.16 µM.

What about the “log-fold IC50 (change of mutant vs WT)” value (80 mV) of the same compound?
The value was 0.6263.

What about the IC50 (80 mV, 15 µM Ca2+) of the same compound?
The IC50 was 8.02 µM.

And the IC50 (100 mV, 15 µM Ca2+)?
Its IC50 is 8.37 µM.

What about the IC50 (120 mV, 15 µM Ca2+) of the same compound?
The IC50 was 8.93 µM.

And the IC50 (140 mV, 15 µM Ca2+)?
Its IC50 is 9.55 µM.

What about the IC50 (-20 mV, 15 µM Ca2+) of the same compound?
Its IC50 is 13.1 µM.

And the IC50 (-40 mV, 15 µM Ca2+)?
Its IC50 is 15.6 µM.

What about the IC50 (-60 mV, 15 µM Ca2+) of the same compound?
The IC50 was 18.6 µM.

And the IC50 (-80 mV, 15 µM Ca2+)?
Its IC50 is 22 µM.

What about the IC50 (-100 mV, 15 µM Ca2+) of the same compound?
Its IC50 is 25.7 µM.

And the IC50 (-120 mV, 15 µM Ca2+)?
Its IC50 is 30.4 µM.

And the IC50 (-140 mV, 15 µM Ca2+)?
Its IC50 is 34.9 µM.

And the IC50 (V543A, V 0 mV)?
Its IC50 is 11.2 µM.

And the IC50 (V543A, V 20 mV)?
Its IC50 is 9.55 µM.

And the IC50 (V543A, V 40 mV)?
Its IC50 is 8.65 µM.

And the IC50 (V543A, V 60 mV)?
The IC50 was 8.16 µM.

And the IC50 (V543A, V 80 mV)?
The IC50 was 8.02 µM.

What about the IC50 (V543A, V 100 mV) of the same compound?
The IC50 was 8.37 µM.

And the IC50 (V543A, V 120 mV)?
The IC50 was 8.93 µM.

What about the IC50 (V543A, V 140 mV) of the same compound?
Its IC50 is 9.55 µM.

What about the IC50 (V543A, V -20 mV) of the same compound?
The IC50 was 13.1 µM.

And the IC50 (V543A, V -40 mV)?
The IC50 was 15.6 µM.

What about the IC50 (V543A, V -60 mV) of the same compound?
Its IC50 is 18.6 µM.

And the IC50 (V543A, V -80 mV)?
Its IC50 is 22 µM.

What about the IC50 (V543A, V -100 mV) of the same compound?
Its IC50 is 25.7 µM.

What about the IC50 (V543A, V -120 mV) of the same compound?
Its IC50 is 30.4 µM.

And the IC50 (V543A, V -140 mV)?
The IC50 was 34.9 µM.
